Data as given in PMC4698058 (Fitoterapia, 2015).

Target: T1, recombinant human M1 receptor (Homo sapiens, UniProt P11229)
T1 sequence (P11229 1-460): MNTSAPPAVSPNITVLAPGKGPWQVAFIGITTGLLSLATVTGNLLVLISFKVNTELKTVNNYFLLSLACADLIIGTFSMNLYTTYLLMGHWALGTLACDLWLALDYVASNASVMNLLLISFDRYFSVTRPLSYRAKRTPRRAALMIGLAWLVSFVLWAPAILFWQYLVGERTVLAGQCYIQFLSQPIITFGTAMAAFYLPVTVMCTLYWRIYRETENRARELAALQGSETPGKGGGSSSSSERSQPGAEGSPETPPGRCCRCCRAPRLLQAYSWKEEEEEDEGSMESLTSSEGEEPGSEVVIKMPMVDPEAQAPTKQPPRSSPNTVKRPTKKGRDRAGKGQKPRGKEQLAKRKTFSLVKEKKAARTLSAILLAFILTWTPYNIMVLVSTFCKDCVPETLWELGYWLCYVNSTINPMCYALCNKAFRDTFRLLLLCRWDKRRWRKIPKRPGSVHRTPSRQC
Experiment: Inhibition of carbacol-induced Ca2+ mobilization in CHO-M1 cells
Type: cell-based
Settings: for inhibition of carbacol induced M1 receptor activities: compound at 10 μM

inhibition of carbacol induced M1 receptor activities (CHO-M1 cells)	Compound	also measured
	O=C(O)/C=C/c1ccc(O)c(O)c1 [caffeic acid, reference compound]	activity against M1 receptor (concentrations up to 10 μM, CHO-M1 cells): did not show any activity
35-40%	NCCCCNC(=O)/C=C/c1ccc(O)c(O)c1 [compound 6, cafeoylputrescine]	
35-40%	scotanamine A [compound 1]	
	scotanamine C [compound 3]	IC50 (read-out: IC50, inhibitory activity against M1 receptor): 7.8 µM
